For this data set, the system named is rodent carcinogenicity bioassays, tumor incidence. Description: CCRIS carcinogenicity studies. Summed up: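 NCI-built, expert-reviewed records of carcinogenicity and related test outcomes (mutagenicity, tumor promotion/inhibition) compiled from published and report sources, historical span 1985-2011, not updated.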

Structures are written as SMILES. Calls of active or inactive are those of the source. The rule behind the calls is not given here.

Take `C[C@]12CC[C@@H]3c4ccc(O)cc4CC[C@H]3[C@@H]1CC[C@@H]2O`: the carcinogen call is “active; positive” (Species: GUINEA PIG, Route: SUBCUTANEOUS IMPLANT, Tumor Site: Type of Lesion: UTERUS); “active; positive” (Species: HAMSTER, Route: SUBCUTANEOUS IMPLANT, Tumor Site: Type of Lesion: KIDNEY); “active; positive” (Species: HAMSTER, Strain/Sex: SYRIAN/MALE, Route: SUBCUTANEOUS IMPLANT, Dose: 0, 20 MG IN PELLETS IMPLANTED EVERY 2.5 MO FOR 9 MO (STUDY DURATION: 9 MO), Tumor Site: Type of Lesion: KIDNEY: TUMOR); “active; positive” (Species: MOUSE, Route: ORAL, SUBCUTANEOUS IMPLANT, Tumor Site: Type of Lesion: CERVIX, THYMUS GLAND, MAMMARY GLAND, UTERUS, VAGINA, Tumor Site: Type of Lesion: CERVIX, THYMUS GLAND, MAMMARY GLAND, UTERUS, VAGINA); “active; positive” (Species: MOUSE, Route: SUBCUTANEOUS, Tumor Site: Type of Lesion: LYMPHATIC SYSTEM); “active; positive” (Species: MOUSE, Strain/Sex: BALB/CCRGL/FEMALE, Route: SUBCUTANEOUS, Dose: 5 UG DAILY FOR 5 D BEGINNING 16 HR AFTER BIRTH (STUDY DURATION: 20 MO), Tumor Site: Type of Lesion: CERVICOVAGINAL TRACT: CARCINOMA (16/37)). Besides, the carcinogen call (Species: RAT, Route: SUBCUTANEOUS IMPLANT, Tumor Site: Type of Lesion: MAMMARY GLAND, PITUITARY GLAND) is “active; positive”.

Consider `CNc1nncc2ccccc12`, for which the carcinogen call (Species: MOUSE, Strain/Sex: SWISS/MALE,FEMALE, Route: ORAL, Dose: 0.125% IN WATER, Tumor Site: Type of Lesion: LUNG) was “active; positive”; the carcinogen call (Species: RAT, Strain/Sex: SPRAGUE-DAWLEY/MALE, Route: ORAL, Dose: 0, 0.035% IN DIET FOR 68-87 WK (STUDY DURATION: 87 WK)) was “inactive; negative”; the carcinogen call (Species: RAT, Strain/Sex: SPRAGUE-DAWLEY/MALE, Route: SUBCUTANEOUS, Dose: 0, 16.7 MG/KG 1/WK FOR 87 WK (STUDY DURATION: 87 WK)) was “inactive; negative”; the carcinogen call (Species: RAT, Strain/Sex: SPRAGUE-DAWLEY/MALE, Route: SUBCUTANEOUS, Dose: 0, 16.7 MG/KG 1/WK FOR 87 WK ADMINISTERED TO PARTIALLY HEPATECTOMIZED RATS (STUDY DURATION: 87 WK)) is “inactive; negative”.

`COCCOC1=C(N2CC2)C(=O)C(OCCOC)=C(N2CC2)C1=O`: where the note is “Species: MOUSE, Route: INTRAPERITONEAL, Tumor Site: Type of Lesion: LUNG”, the carcinogen call is “active; positive”.

Take `CCCCC(CC)COP(=O)(OCC(CC)CCCC)OCC(CC)CCCC` (stereo not given): the carcinogen call by setting is: (Species: MOUSE, Strain/Sex: B6C3F1/FEMALE, Route: GAVAGE, Dose: 0, 500, 1000 MG/KG IN CORN OIL 1/D 5 D/WK FOR 102-104 WK (STUDY DURATION: 102-104 WK), Dose: 0, 500, 1000 MG/KG IN CORN OIL 1/D 5 D/WK FOR 102-104 WK (STUDY DURATION: 102-104 WK), Tumor Site: Type of Lesion: LIVER: CARCINOMA, CARCINOMA OR ADENOMA) “active; positive”; (Species: MOUSE, Strain/Sex: B6C3F1/FEMALE, Route: GAVAGE, Dose: 0, 500, 1000 MG/KG IN CORN OIL 5/WK FOR 103 WK (STUDY DURATION: 104 WK), Dose: 0, 500, 1000 MG/KG IN CORN OIL 5/WK FOR 103 WK (STUDY DURATION: 104 WK), Tumor Site: Type of Lesion: LIVER: ADENOMA, CARCINOMA) “active; positive”; (Species: MOUSE, Strain/Sex: B6C3F1/MALE, Route: GAVAGE, Dose: 0, 500, 1000 MG/KG IN CORN OIL 1/D 5 D/WK FOR 102-104 WK (STUDY DURATION: 102-104 WK), Dose: 0, 500, 1000 MG/KG IN CORN OIL 1/D 5 D/WK FOR 102-104 WK (STUDY DURATION: 102-104 WK)) “inactive; negative”; (Species: MOUSE, Strain/Sex: B6C3F1/MALE, Route: GAVAGE, Dose: 0, 500, 1000 MG/KG IN CORN OIL 5/WK FOR 103 WK (STUDY DURATION: 104 WK), Dose: 0, 500, 1000 MG/KG IN CORN OIL 5/WK FOR 103 WK (STUDY DURATION: 104 WK)) “inactive; negative”; (Species: RAT, Strain/Sex: F344/FEMALE, Route: GAVAGE, Dose: 0, 1000, 2000 MG/KG IN CORN OIL 5/WK FOR 103 WK (STUDY DURATION: 103 WK), Dose: 0, 1000, 2000 MG/KG IN CORN OIL 5/WK FOR 103 WK (STUDY DURATION: 103 WK)) “inactive; negative”; (Species: RAT, Strain/Sex: F344/FEMALE, Route: GAVAGE, Dose: 0, 1000, 2000 MG/KG IN CORN OIL 5 D/WK FOR 102-104 WK (STUDY DURATION: 102-104 WK), Dose: 0, 1000, 2000 MG/KG IN CORN OIL 5 D/WK FOR 102-104 WK (STUDY DURATION: 102-104 WK)) “inactive; negative”. The carcinogen call by setting is: (Species: RAT, Strain/Sex: F344/MALE, Route: GAVAGE, Dose: 0, 2000, 4000 MG/KG IN CORN OIL 5/WK FOR 103 WK (STUDY DURATION: 104 WK), Dose: 0, 2000, 4000 MG/KG IN CORN OIL 5/WK FOR 103 WK (STUDY DURATION: 104 WK), Tumor Site: Type of Lesion: ADRENAL GLAND: PHEOCHROMOCYTOMA) “equivocal”; (Species: RAT, Strain/Sex: F344/MALE, Route: GAVAGE, Dose: 0, 2000, 4000 MG/KG IN CORN OIL 5 D/WK FOR 102-104 WK (STUDY DURATION: 102-104 WK), Dose: 0, 2000, 4000 MG/KG IN CORN OIL 5 D/WK FOR 102-104 WK (STUDY DURATION: 102-104 WK)) “inactive; negative”.
